What is called Kb is the equilibrium dissociation constant of an antagonist, usually derived from a functional assay.

SMILES strings stand for the structures.

Here are results for 19 molecules from patent publication US9174977B2, “2-azabicyclo[4.1.0]heptane derivatives as orexin receptor antagonists for the treatment of certain disorders” (Rottapharm Biotech S.r.l., priority 2012, dated 2015).

The target in experiment [1] is T1, human OX2 receptors (Homo sapiens, UniProt O43614).
T1 construct: expressed in transfected cells; host or cells: HEK-293 cells
T1 sequence (O43614 1-444): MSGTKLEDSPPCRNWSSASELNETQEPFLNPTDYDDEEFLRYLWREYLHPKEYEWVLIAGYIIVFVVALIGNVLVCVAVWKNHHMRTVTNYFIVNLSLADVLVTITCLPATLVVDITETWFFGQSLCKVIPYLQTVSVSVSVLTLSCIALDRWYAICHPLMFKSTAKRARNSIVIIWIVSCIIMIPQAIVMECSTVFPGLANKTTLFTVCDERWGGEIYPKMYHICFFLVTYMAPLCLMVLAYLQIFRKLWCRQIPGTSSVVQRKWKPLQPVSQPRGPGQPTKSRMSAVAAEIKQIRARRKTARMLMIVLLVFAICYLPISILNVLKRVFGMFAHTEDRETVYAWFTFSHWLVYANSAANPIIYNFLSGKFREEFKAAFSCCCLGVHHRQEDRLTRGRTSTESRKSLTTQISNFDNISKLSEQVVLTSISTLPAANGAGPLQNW
In words: antagonistic activity against human OX2 receptor, calcium fluorimetry (Fluo-4NW) in transfected HEK-293 cells. Type of experiment: cell-based. To be noted: HEK-293 cells transfected with human recombinant OX2, activated with orexin-B 10 nM; pKb = co-logarithm of apparent dissociation constant (modified Cheng Prusoff). The protocol: (§1) In a typical experiment, the antagonistic activity against human OX1 and OX2 receptors is determined by using CHO e HEK-293 cells transfected with human recombinant OX1 and OX2 receptors respectively, seeded at density of 2 and 3×10^4 cells/well respectively in a 96 fluorimetry well plate. Thus the plate was loaded with the calcium dye (Fluo-4NW/probenecid in HBSS, Hepes 20 mM, pH 7,4; Invitrogen) at 37° C. for 60 min. Afterward the temperature was equilibrated at 22° C. for 15 min and the [Ca2+]i measured directly on the plate by using a fluorescent plate reader (CellLux Perkin Elmer).
(§2) Invention compounds were dissolved in DMSO, diluted in HBSS (DMSO, 0.3% final) and added to the wells. After 5 min CHO cells were activated with orexin-A, 3 nM while HEK-293 cells were activated with orexin-B, 10 nM.
(§3) The compounds, dissolved in DMSO and diluted in the medium (DMSO, 0.3% final), have been analysed in the 1 nM-1 μM concentration range (every concentration in duplicate). The antagonistic activity has been expressed as pKb (co-logarithm of the apparent dissociation constant calculated by using the modified Cheng Prusoff equation).
(§4) The results are expressed as percent of control specific […] response ((measured specific response/control specific agonist response)×100) obtained in the presence of the test compounds.
(§5) The IC50 values (concentration causing a half-maximal inhibition of the control specific agonist response) were determinated by non-linear regression analysis of the concentration curves generated with mean replicate values using hill equation curve fitting. The IC50 values are obtained by the arithmetical mean of at least two experiments.

Experiment [2] concerns the target T2, human OX1 receptors (Homo sapiens, UniProt O43613).
T2 construct: expressed in transfected cells; host or cells: CHO cells
T2 sequence (O43613 1-425): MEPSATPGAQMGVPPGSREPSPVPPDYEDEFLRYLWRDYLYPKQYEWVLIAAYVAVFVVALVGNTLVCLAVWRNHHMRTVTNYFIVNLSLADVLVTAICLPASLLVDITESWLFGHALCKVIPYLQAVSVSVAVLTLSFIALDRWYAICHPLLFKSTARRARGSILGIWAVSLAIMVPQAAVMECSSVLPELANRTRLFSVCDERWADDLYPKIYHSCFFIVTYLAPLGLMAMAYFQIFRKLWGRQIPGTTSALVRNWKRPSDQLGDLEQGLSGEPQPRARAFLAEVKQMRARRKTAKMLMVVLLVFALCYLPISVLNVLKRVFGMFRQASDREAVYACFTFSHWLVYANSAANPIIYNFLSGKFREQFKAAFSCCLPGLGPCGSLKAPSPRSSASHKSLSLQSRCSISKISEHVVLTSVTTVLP
In words: antagonistic activity against human OX1 receptor, calcium fluorimetry (Fluo-4NW) in transfected CHO cells. Type of experiment: cell-based. To be noted: CHO cells transfected with human recombinant OX1, activated with orexin-A 3 nM; pKb = co-logarithm of apparent dissociation constant (modified Cheng Prusoff). Here is the method:
as §1, §2, §3, §4, §5

Take `O=C(c1cc(Cl)ccc1-c1ncccn1)N1[C@H](CNc2cc(C(F)(F)F)ccn2)CC[C@H]2C[C@H]21` [Compound 1a, (5-chloro-2-(pyrimidin-2-yl)phenyl)((1R,3S,6S)-3-(((4-(trifluoromethyl)pyridin-2-yl)amino)methyl)-2-azabicyclo[4.1.0]heptan-2-yl)methanone]: the Kb was 3.98 nM in experiment [1] and 1.58 nM in experiment [2].

Take `N#Cc1ccc(-c2ncccn2)c(C(=O)N2[C@H](CNc3ccc(C(F)(F)F)cn3)CC[C@H]3C[C@H]32)c1` [Compound 1b, 4-(pyrimidin-2-yl)-3-((1R,3S,6S)-3-(((5-(trifluoromethyl)pyridin-2-yl)amino)methyl)-2-azabicyclo[4.1.0]heptane-2-carbonyl)benzonitrile]: the Kb was 10 nM in experiment [1] and 5.01 nM in experiment [2].

For `Cc1ccc(-c2ncccn2)c(C(=O)N2[C@H](CNc3ccc(Cl)cn3)CC[C@H]3C[C@H]32)c1` [Compound 1c], the antagonist equilibrium constant (Kb) in experiment [1] was 12.6 nM; in experiment [2], 0.794 nM.

In the case of `Cc1ccc(-c2ncccn2)c(C(=O)N2[C@H](CNc3ccc(C(F)(F)F)cn3)CC[C@H]3C[C@H]32)c1` [Compound 1d, (5-methyl-2-(pyrimidin-2-yl)phenyl)((1R,3S,6S)-3-(((5-(trifluoromethyl)pyridin-2-yl)amino)methyl)-2-azabicyclo[4.1.0]heptan-2-yl)methanone], the Kb in experiment [1] was 3.98 nM; in experiment [2], 1.26 nM.

On to `O=C(c1cc(Cl)ccc1-c1ncccn1)N1[C@H](CNc2ccc(C(F)(F)F)cn2)CC[C@H]2C[C@H]21` [Compound 1e, (5-chloro-2-(pyrimidin-2-yl)phenyl)((1R,3S,6S)-3-(((5-(trifluoromethyl)pyridin-2-yl)amino)methyl)-2-azabicyclo[4.1.0]heptan-2-yl)methanone], for which the antagonist dissociation constant (Kb) in experiment [1] was 12.6 nM; in experiment [2], 2.51 nM.

With `O=C(c1cc(Cl)ccc1-c1ncccn1)N1[C@H](CNc2ccc(Cl)cn2)CC[C@H]2C[C@H]21` [Compound 1f, (5-chloro-2-(pyrimidin-2-yl)phenyl)((1R,3S,6S)-3-(((5-chloropyridin-2-yl)amino)methyl)-2-azabicyclo[4.1.0]heptan-2-yl)methanone], the Kb was 15.8 nM in experiment [1] and 0.794 nM in experiment [2].

As for `O=C(c1cc(Cl)ccc1-c1ncccn1)N1[C@H](CNc2nccc(C(F)(F)F)n2)CC[C@H]2C[C@H]21` [Compound 1g, (5-chloro-2-(pyrimidin-2-yl)phenyl)((1R,3S,6S)-3-(((4-(trifluoromethyl)pyrimidin-2-yl)amino)methyl)-2-azabicyclo[4.1.0]heptan-2-yl)methanone], the results for the Kb in experiment [1] and in experiment [2] were 5.01 nM and 1 nM, respectively.

Regarding `N#Cc1ccc(-c2ncccn2)c(C(=O)N2[C@H](CNc3cc(C(F)(F)F)ccn3)CC[C@H]3C[C@H]32)c1` [Compound 1h, 4-(pyrimidin-2-yl)-3-((1R,3S,6S)-3-(((4-(trifluoromethyl)pyridin-2-yl)amino)methyl)-2-azabicyclo[4.1.0]heptane-2-carbonyl)benzonitrile], the Kb is 10 nM in experiment [1] and 7.94 nM in experiment [2].

`N#Cc1ccc(-c2ncccn2)c(C(=O)N2[C@H](CNc3ccc(Cl)cn3)CC[C@H]3C[C@H]32)c1` [Compound 1i, 3-((1R,3S,6S)-3-(((5-chloropyridin-2-yl)amino)methyl)-2-azabicyclo[4.1.0]heptane-2-carbonyl)-4-(pyrimidin-2-yl)benzonitrile]: the Kb in experiment [1] is 20 nM; in experiment [2] it was 1.58 nM.

On to `N#Cc1ccc(-c2ncccn2)c(C(=O)N2[C@H](CNc3nccc(C(F)(F)F)n3)CC[C@H]3C[C@H]32)c1` [Compound 1j, 4-(pyrimidin-2-yl)-3-((1R,3S,6S)-3-(((4-(trifluoromethyl)pyrimidin-2-yl)amino)methyl)-2-azabicyclo[4.1.0]heptane-2-carbonyl)benzonitrile], for which the Kb in experiment [1] was 20 nM; in experiment [2], 5.01 nM.

For `Cc1ccc(-c2ncccn2)c(C(=O)N2[C@H](CNc3nccc(C(F)(F)F)n3)CC[C@H]3C[C@H]32)c1` [Compound 1k, (5-methyl-2-(pyrimidin-2-yl)phenyl)((1R,3S,6S)-3-(((4-(trifluoromethyl)pyrimidin-2-yl)amino)methyl)-2-azabicyclo[4.1.0]heptan-2-yl)methanone], the Kb in experiment [1] was 5.01 nM; in experiment [2], 2.51 nM.

Take `Cc1nc(C(=O)N2[C@H](CNc3ccc(C(F)(F)F)cn3)CC[C@H]3C[C@H]32)c(-c2ccccc2)s1` [Compound 2a, (2-methyl-5-phenylthiazol-4-yl)((1R,3S,6S)-3-(((5-(trifluoromethyl)pyridin-2-yl)amino)methyl)-2-azabicyclo[4.1.0]heptan-2-yl)methanone]: the Kb in experiment [1] and in experiment [2] was 2.51 nM each time.

Take `Cc1nc(C(=O)N2[C@H](CNc3ccc(Cl)cn3)CC[C@H]3C[C@H]32)c(-c2ccccc2)s1` [Compound 2b, ((1R,3S,6S)-3-(((5-chloropyridin-2-yl)amino)methyl)-2-azabicyclo[4.1.0]heptan-2-yl)(2-methyl-5-phenylthiazol-4-yl)methanone]: the Kb in experiment [1] was 15.8 nM; in experiment [2], 1.26 nM.

Consider `Cc1nc(C(=O)N2[C@H](CNc3nccc(C(F)(F)F)n3)CC[C@H]3C[C@H]32)c(-c2ccccc2)s1` [Compound 2c, (2-methyl-5-phenylthiazol-4-yl)((1R,3S,6S)-3-(((4-(trifluoromethyl)pyrimidin-2-yl)amino)methyl)-2-azabicyclo[4.1.0]heptan-2-yl)methanone], for which the figures for the Kb in experiment [1] and in experiment [2] were 6.31 nM and 1.26 nM, respectively.

As to `N#Cc1ccc(-c2ncccn2)c(C(=O)N2[C@H](COc3ccc(F)cn3)CC[C@H]3C[C@H]32)c1` [Compound 3b, 3-((1R,3S,6S)-3-(((5-fluoropyridin-2-yl)oxy)methyl)-2-azabicyclo[4.1.0]heptane-2-carbonyl)-4-(pyrimidin-2-yl)benzonitrile], the Kb in experiment [2] was 79.4 nM.

Turning to `O=C(c1cc(Cl)ccc1-c1ncccn1)N1[C@H](CNc2ccc(Cl)cn2)CC[C@@H]2C[C@@H]21` [Compound 4e, (5-chloro-2-(pyrimidin-2-yl)phenyl)((1S,3S,6R)-3-(((5-chloropyridin-2-yl)amino)methyl)-2-azabicyclo[4.1.0]heptan-2-yl)methanone], the Kb in experiment [2] was 3.98 nM.

For the molecule `Cc1ccc(-c2ncccn2)c(C(=O)N2[C@H](CNc3ccc(Cl)cn3)CC[C@@H]3C[C@@H]32)c1` [Compound 4g, ((1S,3S,6R)-3-(((5-chloropyridin-2-yl)amino)methyl)-2-azabicyclo[4.1.0]heptan-2-yl)(5-methyl-2-(pyrimidin-2-yl)phenyl)methanone], in experiment [2], the antagonist equilibrium constant (Kb) is 1.58 nM.

For the molecule `O=C(c1cc(Cl)ccc1-c1ncccn1)N1[C@H](CNc2nccc(C(F)(F)F)n2)CC[C@@H]2C[C@@H]21` [Compound 4h, (5-chloro-2-(pyrimidin-2-yl)phenyl)((1S,3S,6R)-3-(((4-(trifluoromethyl)pyrimidin-2-yl)amino)methyl)-2-azabicyclo[4.1.0]heptan-2-yl)methanone], in experiment [2], the Kb was 31.6 nM.

As to `Cc1ccc(-c2ncccn2)c(C(=O)N2[C@H](CNc3nccc(C(F)(F)F)n3)CC[C@@H]3C[C@@H]32)c1` [Compound 4i, (5-methyl-2-(pyrimidin-2-yl)phenyl)((1S,3S,6R)-3-(((4-(trifluoromethyl)pyrimidin-2-yl)amino)methyl)-2-azabicyclo[4.1.0]heptan-2-yl)methanone], the Kb in experiment [2] is 25.1 nM.
